{"source": "patent US11661410B2", "about": "(GLOBAL BLOOD THERAPEUTICS, INC., priority 2017, dated 2023)", "note": "Where a name gives a salt, the structure may show the parent alone.", "data": [{"biological_target": "mu (μ) opiate (OP3) receptor (Homo sapiens (Human), UniProt P35372)", "experiment": "biochemical", "assay_type": "binding", "settings": "read-out: Mu Opiate percent inhibition", "units": {"inhibition at 10 µM": "%"}, "values": [{"compound": "COc1cc2nc3c(c(N[C@@H]4CCCNC4)c2cc1OC)CCC3", "note": "[drawing 594]", "inhibition at 10 µM": 44}, {"compound": "COc1cc2nc3c(c(N[C@H]4CNC[C@@H](C)C4)c2cc1OC)CCC3", "note": "[drawing 596]", "inhibition at 10 µM": 23}, {"compound": "COc1cc2nc3c(c(NC4CCNCC4)c2cc1OC)CCC3", "note": "[drawing 595]", "inhibition at 10 µM": 48}, {"compound": "COc1cc2c(NC(C)C)c3c(nc2cc1OCCCN1CCCC1)CCC3", "note": "[drawing 590]", "inhibition at 10 µM": 92}, {"compound": "CCNc1c2c(nc3cc(OCCCN4CCCC4)c(OC)cc13)CCC2", "note": "[drawing 591]", "inhibition at 10 µM": 92}, {"compound": "COc1cc2nc3c(c(N[C@@H]4CCCCNC4)c2cc1OC)CCC3", "note": "[drawing 597]", "inhibition at 10 µM": 73}, {"compound": "COc1cc2nc3c(c(NCC4CNC4)c2cc1OC)CCC3", "note": "[drawing 593]", "inhibition at 10 µM": 12}]}, {"biological_target": "muscarinic M2 receptor (Homo sapiens (Human), UniProt P08172)", "sequence (P08172 whole entry)": "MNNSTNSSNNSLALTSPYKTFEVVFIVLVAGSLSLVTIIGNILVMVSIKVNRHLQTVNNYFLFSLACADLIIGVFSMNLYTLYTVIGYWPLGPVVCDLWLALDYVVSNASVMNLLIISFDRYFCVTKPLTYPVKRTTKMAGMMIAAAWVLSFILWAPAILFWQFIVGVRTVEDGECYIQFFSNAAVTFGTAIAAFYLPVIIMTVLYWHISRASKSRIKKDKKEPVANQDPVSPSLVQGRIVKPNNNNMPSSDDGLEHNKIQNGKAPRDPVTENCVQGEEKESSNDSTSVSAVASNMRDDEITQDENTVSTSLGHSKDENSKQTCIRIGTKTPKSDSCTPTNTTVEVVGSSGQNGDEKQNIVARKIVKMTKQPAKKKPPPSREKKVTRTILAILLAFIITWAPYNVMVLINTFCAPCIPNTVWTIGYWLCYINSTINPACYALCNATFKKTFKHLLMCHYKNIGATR", "experiment": "Safety pharmacological profiling: muscarinic M2 receptor ligand binding", "settings": "compound at 10 μM, in duplicate; ligand binding to cell membranes; read-out: Muscarinic M2 percent inhibition", "units": {"inhibition at 10 µM": "%"}, "values": [{"compound": "COc1cc2c(NC(C)C)c3c(nc2cc1OCCCN1CCCC1)CCC3", "note": "[drawing 582]", "inhibition at 10 µM": 51}, {"compound": "COc1cc2nc3c(c(N[C@H]4CNC[C@@H](C)C4)c2cc1OC)CCC3", "note": "[drawing 588]", "inhibition at 10 µM": 75}, {"compound": "COc1cc2nc3c(c(NCC4CNC4)c2cc1OC)CCC3", "note": "[drawing 585]", "inhibition at 10 µM": 65}, {"compound": "COc1cc2nc3c(c(N[C@@H]4CCCCNC4)c2cc1OC)CCC3", "note": "[drawing 589]", "inhibition at 10 µM": 80}, {"compound": "COc1cc2nc3c(c(NC4CCN(C(C)C)CC4)c2cc1OC)CCC3", "inhibition at 10 µM": 78}, {"compound": "COc1cc2nc3c(c(N[C@@H]4CCCNC4)c2cc1OC)CCC3", "note": "[drawing 586]", "inhibition at 10 µM": 76}, {"compound": "CCNc1c2c(nc3cc(OCCCN4CCCC4)c(OC)cc13)CCC2", "note": "[drawing 583]", "inhibition at 10 µM": 62}, {"compound": "COc1cc2nc3c(c(NC4CCNCC4)c2cc1OC)CCC3", "note": "[drawing 587]", "inhibition at 10 µM": 62}]}, {"biological_target": "G9a (Homo sapiens (Human), UniProt Q96KQ7)", "sequence (Q96KQ7 whole entry)": "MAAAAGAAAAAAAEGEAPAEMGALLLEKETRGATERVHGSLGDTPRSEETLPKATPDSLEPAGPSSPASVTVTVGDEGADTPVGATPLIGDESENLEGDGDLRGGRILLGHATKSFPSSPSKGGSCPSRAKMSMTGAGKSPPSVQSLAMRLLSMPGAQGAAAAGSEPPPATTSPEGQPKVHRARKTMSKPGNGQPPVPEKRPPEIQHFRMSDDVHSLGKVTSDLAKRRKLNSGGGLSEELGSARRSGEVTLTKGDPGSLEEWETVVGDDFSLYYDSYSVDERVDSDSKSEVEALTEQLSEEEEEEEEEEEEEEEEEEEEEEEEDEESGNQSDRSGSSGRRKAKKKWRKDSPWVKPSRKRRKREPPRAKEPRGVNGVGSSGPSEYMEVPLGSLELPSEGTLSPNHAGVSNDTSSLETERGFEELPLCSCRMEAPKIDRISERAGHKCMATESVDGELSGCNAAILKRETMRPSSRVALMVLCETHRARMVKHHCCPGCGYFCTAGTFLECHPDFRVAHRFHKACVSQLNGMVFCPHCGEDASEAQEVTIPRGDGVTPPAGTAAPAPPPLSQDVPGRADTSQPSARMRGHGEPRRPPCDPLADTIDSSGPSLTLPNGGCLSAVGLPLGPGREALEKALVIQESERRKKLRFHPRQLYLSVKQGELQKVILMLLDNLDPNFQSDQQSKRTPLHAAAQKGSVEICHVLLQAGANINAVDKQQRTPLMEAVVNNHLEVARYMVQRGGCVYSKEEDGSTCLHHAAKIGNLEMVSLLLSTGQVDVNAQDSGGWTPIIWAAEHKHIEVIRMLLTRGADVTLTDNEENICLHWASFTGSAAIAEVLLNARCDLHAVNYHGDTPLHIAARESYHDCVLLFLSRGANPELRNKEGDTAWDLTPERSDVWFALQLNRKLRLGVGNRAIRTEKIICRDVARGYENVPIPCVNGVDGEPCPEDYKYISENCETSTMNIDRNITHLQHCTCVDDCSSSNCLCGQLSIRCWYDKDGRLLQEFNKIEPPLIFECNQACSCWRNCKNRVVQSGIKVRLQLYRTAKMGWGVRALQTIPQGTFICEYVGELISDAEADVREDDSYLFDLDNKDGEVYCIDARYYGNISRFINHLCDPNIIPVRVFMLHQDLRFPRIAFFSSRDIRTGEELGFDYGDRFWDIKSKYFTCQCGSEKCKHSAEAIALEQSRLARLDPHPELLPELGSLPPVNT", "experiment": "G9a AlphaLISA enzymatic activity assay", "assay_type": "biochemical", "settings": "not given", "values": [{"compound": "N-[(azetidin-3-yl)methyl]-6,7-dimethoxy-1H,2H,3H-cyclopenta[b]quinolin-9-amine—2HCl [Example 8]", "pIC50": 7.27}]}, {"biological_target": "G9a (Homo sapiens (Human), UniProt Q96KQ7)", "experiment": "G9a AlphaLISA enzymatic activity assay", "assay_type": "biochemical", "settings": "G9a AlphaLISA; negative log of the IC50 value in molar", "units": {"IC50": "nM"}, "values": [{"compound": "CCOc1cc2nc3c(c(N[C@@H]4CCCNC4)c2cc1OC)CCC3", "note": "[Example 407, (3R)-N-{6-ethoxy-7-methoxy-1H,2H,3H-cyclopenta[b]quinolin-9-yl}piperidin-3-amine]", "pIC50": 7}, {"compound": "COc1cc2c(NC3CCN(C(C)C)CC3)c3c(nc2cc1OC(F)F)CCC3", "note": "[Example 36]", "pIC50": 5.42}, {"compound": "COc1cc2nc3c(c(N[C@H]4CNC[C@H](F)C4)c2cc1OC)CCC3", "note": "[Example 416, (3R,5R)-N-{6,7-dimethoxy-1H,2H,3H-cyclopenta[b]quinolin-9-yl}-5-fluoropiperidin-3-amine]", "pIC50": 6.9}, {"compound": "COCCN1CCC(Nc2c3c(nc4cc(OC)c(OC)cc24)CCC3)CC1", "note": "[Example 61, N-{6,7-dimethoxy-1H,2H,3H-cyclopenta[b]quinolin-9-yl}-1-(2-methoxyethyl)piperidin-4-amine]", "pIC50": 6.7}, {"compound": "COc1cc2nc3c(c(NC4CCN(C(=O)CO)CC4)c2cc1OC)CCC3", "note": "[Example 54, 1-[4-({6,7-dimethoxy-1H,2H,3H-cyclopenta[b]quinolin-9-yl}amino)piperidin-1-yl]-2-hydroxyethan-1-one]", "pIC50": 6.24}, {"compound": "COc1cc2nc3c(c(N[C@@H]4CCCCNC4)c2nc1OC)CCC3", "note": "[Example 402]", "pIC50": 7.1}, {"compound": "[2H]C([2H])([2H])Oc1cc2nc3c(c(N[C@@H]4CCCNC4)c2cc1OC([2H])([2H])[2H])CCC3", "note": "[Example 405, (3R)-N-[6,7-di(2H3)methoxy-1H,2H,3H-cyclopenta[b]quinolin-9-yl]piperidin-3-amine]", "IC50": 12.6}, {"compound": "COc1cc2nc3c(c(NC4CCCNC4)c2cc1OC)CCC3", "note": "(stereo not drawn) [Example 10]", "pIC50": 7.66}, {"compound": "COc1cc2nc3c(c(N[C@H]4CCCNC4)c2cc1OC)CCC3", "note": "[Example 28]", "pIC50": 6.66}, {"compound": "COc1cc2nc3c(c(N[C@H]4CNC[C@@H](F)C4)c2cc1OC)CCC3", "note": "[Example 412, (3R,5S)-N-{6,7-dimethoxy-1H,2H,3H-cyclopenta[b]quinolin-9-yl}-5-fluoropiperidin-3-amine]", "pIC50": 6.5}, {"compound": "COc1cc2nc3c(c(NCC4CCNC4)c2cc1OC)CCC3", "note": "(stereo not drawn) [Example 65, 6,7-dimethoxy-N-[(pyrrolidin-3-yl)methyl]-1H,2H,3H-cyclopenta[b]quinolin-9-amine]", "pIC50": 7.4}, {"compound": "COc1cc2nc3c(c(NC4CCN(C5CCOCC5)CC4)c2cc1OC)CCC3", "note": "[Example 16, hydrochloride]", "pIC50": 7.27}, {"compound": "CCOCCOc1cc2nc3c(c(NC)c2cc1OC)CCC3", "note": "[Example 4, bis(formic acid)]", "pIC50": 5.57}, {"compound": "COc1cc2nc3c(c(NC4CCN(C)CC4)c2cc1OC)CCC3", "note": "[Example 9]", "pIC50": 7.31}, {"compound": "COc1cc2nc3c(c(N[C@@H]4CNCC(F)(F)C4)c2cc1OC)CCC3", "note": "[Example 413, (3S)-N-{6,7-dimethoxy-1H,2H,3H-cyclopenta[b]quinolin-9-yl}-5,5-difluoropiperidin-3-amine]", "IC50": "> 10000"}, {"compound": "COc1cc2nc3c(c(NC4CCN(c5ccccc5OC)CC4)c2cc1OC)CCC3", "note": "[Example 49]", "pIC50": 5.63}, {"compound": "COc1cc2nc3c(c(N[C@@H]4CCCCN(C)C4)c2nc1OC)CCC3", "note": "[Example 404, (3R)-N-[2,3-dimethoxy-6H,7H,8H-cyclopenta[b]1,5-naphthyridin-9-yl]-1-methylazepan-3-amine]", "pIC50": 6.6}, {"compound": "COc1cc2nc3c(c(NC4CCN(c5cccc(Cl)c5)CC4)c2cc1OC)CCC3", "note": "[Example 50]", "pIC50": 5.53}, {"compound": "COc1cc2c(NC3CCN(C(C)C)CC3)c3c(nc2cc1O)CCC3", "note": "[Example 35]", "pIC50": 7.94}, {"compound": "COc1cc2nc3c(c(NC4CCN(c5cccc(F)c5F)CC4)c2cc1OC)CCC3", "note": "[Example 59, 1-(2,3-difluorophenyl)-N-{6,7-dimethoxy-1H,2H,3H-cyclopenta[b]quinolin-9-yl}piperidin-4-amine]", "pIC50": 5.3}]}]}
